Assay results from patent publication US7868013B2, “Cycloalkyl substituted pyrimidinediamine compounds and their uses” (Rigel Pharmaceuticals, Inc., priority 2004, dated 2011).
Where two headings read alike, the source gives them in different places.

Assays:
Assay type in all cases: cell-based
A549 (lung carcinoma) = experiment: In vitro antiproliferation assay, A549 cells (TABLE 1 6 point assay; TABLE 2)
Protocol: (§1) Certain compounds were tested against other cell types for their ability to inhibit proliferation in standard antiproliferation assays.

[1] = system: H1299 (non-small cell lung carcinoma); experiment: In vitro antiproliferation assay, H1299 cells (TABLE 1 6 point assay; TABLE 2)
Protocol: as §1

[2] = system: DU145 (prostate carcinoma); experiment: In vitro antiproliferation assay, DU145 cells
Protocol: (§2) Cis racemic Compound 15, (1S,2R) enantiomeric Compound 15a and […] enantiomeric Compound 15b were also tested against DU145 (prostate carcinoma), HCT116 (colorectal carcinoma) and MiaPaCa-2 (pancreatic carcinoma) cell lines.
as §1

[3] = system: MiaPaCa-2 (pancreatic carcinoma); experiment: In vitro antiproliferation assay, MiaPaCa-2 cells
Protocol: as §2, §1

[4] = system: HCT116 (colorectal carcinoma); experiment: In vitro antiproliferation assay, HCT116 cells; settings: Homo sapiens, HCT-116; HCT116 (colorectal carcinoma) cell line
Protocol: as §2

[5] = system: ASPC-1 (pancreatic adenocarcinoma); experiment: In vitro antiproliferation assay, ASPC-1 cells; settings: ASPC1
Protocol: as §1

[6] = system: COLO 205 (colorectal adenocarcinoma); experiment: In vitro antiproliferation assay, COLO 205 cells; settings: Colo205
Protocol: as §1

[7] = system: H1155 (non-small cell lung carcinoma); experiment: In vitro antiproliferation assay, H1155 cells; settings: H1155
Protocol: as §1

H7299 = experiment: In vitro antiproliferation assay, H7299 cells
Protocol: as §1

[8] = system: HELA (cervical adenocarcinoma); experiment: In vitro antiproliferation assay, HELA cells
Protocol: as §1

[9] = system: HL160 (promyeloblast promyelocytic leukemia); experiment: In vitro antiproliferation assay, HL160 cells
Protocol: as §1

[10] = system: K562 (bone marrow chronic myelogenous leukemia); experiment: In vitro antiproliferation assay, K562 cells
Protocol: as §1

[11] = system: L1210 (mouse lymphocytic leukemia); experiment: In vitro antiproliferation assay, L1210 cells
Protocol: as §1

[12] = system: MOLT3 (T lymphoblast acute lymphoblastic leukemia); experiment: In vitro antiproliferation assay, MOLT3 cells
Protocol: as §1

[13] = system: MOLT4 (T lymphoblast acute lymphoblastic leukemia); experiment: In vitro antiproliferation assay, MOLT4 cells
Protocol: as §1

[14] = system: PC3 (prostate adenocarcinoma); experiment: In vitro antiproliferation assay, PC3 cells
Protocol: as §1

[15] = system: SW620 (colorectal adenocarcinoma); experiment: In vitro antiproliferation assay, SW620 cells
Protocol: as §1

[16] = system: THP-1 (monocyte acute monocytic leukemia); experiment: In vitro antiproliferation assay, THP-1 cells
Protocol: as §1

U2OS (bone osteosarcoma) = experiment: In vitro antiproliferation assay, U2OS cells; settings: U20S
Protocol: as §1

[17] = system: U937 (histiocytic lymphoma); experiment: In vitro antiproliferation assay, U937 cells; settings: Homo sapiens, U-937
Protocol: as §1

Aurora kinase-B = target: T1, Aurora kinase-B (Homo sapiens, UniProt Q96GD4); experiment: Functional cellular assay of Aurora kinase-B: phosphorylation of histone H3 in A549 cells
T1 construct: endogenous in cells; host or cells: A549 cells
Protocol: Enantiomers E1 and E2 (Compounds 60a and 60b, respectively) were tested for their ability to inhibit Aurora kinase-B in a functional cellular assay involving phosphorylation of its substrate, histone H3. For the assay, A549 cells were seeded into the wells of a microtiter tray (5000 cells/well in 100 μl F12K media) late in the afternoon on Day 1. The cells were grown overnight (37° C., 5% CO2) On Day 2, 50 μl nocodazole (1 μM in media) was added to each well, giving a final concentration of 333 nM. Cells were grown for an additional 18 hrs under the same conditions.
On Day 3, 50 μl aliguots of varying concentrations of test compound were added to the wells Test compounds were prepared by 2-fold serial dilution of a […] stock (in DMSO). The diluted compounds in DMSO were then further diluted 1:50 with media to yield a final solution containing 4× test compound, 98% media, 2% DMSO. After incubation, the media/test compound was washed and the cells fixed with 2% paraformaldehyde (in Dulbecco's phosphate buffered saline “DPBS”; 25 μl per well; […] incubation). […] The cells were then stained with a secondary antibody labeled with a fluorescent dye (secondary antibody donkey anti-mouse AlexFluor 488 (Invitrogen Molecular Probes; 1:2000) and DAPI (1:15,000 of 1 mg/ml stock) for 1 hr at room temperature, washed three times with DPBS (200 μl/well) and stored under DPBS (100 μl/well) at 4° C. until ready for analysis.
A Zeiss Axiovert S100 inverted fluorescent microscope with a Plan-NEOFLUAR 10× objective, a Hamamatsu Lightningcure 200 Mercury-Xenon light source and an Omega Optical XF57 quad filter was used for all data collection. […] Images were captured and analyzed in 12-bit format using segmentation and morphological routines contained in the Image Pro software package. Identified nuclei were counted and pixel data for each cell along with experimental conditions was stored in a database using MySQL 4.0.14. […]
For phospho-histone H3 analysis the data is converted to Facs files and analysed using FlowJo. […]

[18] = system: a variety of tumor cell types; experiment: In vitro antiproliferation assays against a variety of tumor cell types (stereoisomer comparison)
Protocol: Moreover, it has been discovered that the enantiomer corresponding to the (1R,2R,3S,4S) diastereomer of structural formula (IVa) is largely responsible for the potency of the exo-exo cis racemate.
as §1

[19] = Homo sapiens, A549, 6 point assay, A549 cells, read-out: IC50, A549 cells
[20] = Homo sapiens, NCI-H1299, 6 point assay, H1299 cells, read-out: IC50, H1299 cells
[21] = Homo sapiens, DU-145, DU145 (prostate carcinoma) cell line, read-out: IC50
[22] = Homo sapiens, MIA PaCa-2, MiaPaCa-2 (pancreatic carcinoma) cell line, read-out: IC50
[23] = Homo sapiens, DU-145, DU145, read-out: In Vitro IC50
[24] = Homo sapiens, MIA PaCa-2, Miapaca2, read-out: In Vitro IC50

T1 sequence (Q96GD4 whole entry): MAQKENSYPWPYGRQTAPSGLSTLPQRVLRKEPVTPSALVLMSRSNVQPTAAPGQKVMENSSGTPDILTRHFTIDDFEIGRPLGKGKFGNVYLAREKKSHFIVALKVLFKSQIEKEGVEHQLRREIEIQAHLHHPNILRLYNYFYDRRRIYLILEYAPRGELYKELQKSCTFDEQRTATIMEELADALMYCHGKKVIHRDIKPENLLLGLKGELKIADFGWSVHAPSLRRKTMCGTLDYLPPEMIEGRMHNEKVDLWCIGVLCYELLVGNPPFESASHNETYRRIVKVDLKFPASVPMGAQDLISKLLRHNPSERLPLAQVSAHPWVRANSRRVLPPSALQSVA

How did the IC50 (A549 (lung carcinoma); [19]) turn out when `Cc1cc(Nc2ncc(F)c(NC3CCCC3C(N)=O)n2)ccc1N1CCN(C)CC1` (racemic) [Compound 15, Racemic-cis-N4-(2-Aminocarbonylcyclopent-1-yl)-5-fluoro-N2-[4-(4-methylpiperazin-1-yl)-3-methylphenyl]-2,4-pyrimidinediamine] was run?
Its IC50 is 100 to 1000 nM.

And the IC50 [1, 20]?
The IC50 was 100 to 1000 nM.

What about the IC50 [2, 21] of the same compound?
Its IC50 is less than 1000 nM.

And the IC50 [3, 22]?
The IC50 was less than 1000 nM.

And the IC50 [4]?
The IC50 was less than 1000 nM.

Which results are given for `Cc1cc(Nc2ncc(F)c(NC3C4C=CC(C4)C3C(N)=O)n2)ccc1N1CCN(C)CC1` (racemic) [Compound 60, 2-exo-3-exo racemic N4-(3-aminocarbonylbicyclo[2.2.1]hept-5-ene-2-yl)-5-fluoro-N2-[3-methyl-4-(4-methylpiperazin-1-yl)phenyl]-2,4-pyrimidinediamine]?
IC50 (A549 (lung carcinoma); A549, read-out: In Vitro IC50): ≤ 20 nM; IC50 [5]: ≤ 20 nM; IC50 [6]: ≤ 10 nM; IC50 ([2]; DU145, read-out: In Vitro IC50): ≤ 20 nM; IC50 [7]: ≤ 10 nM; IC50 (H7299): ≤ 20 nM; IC50 ([8]; HELA): ≤ 10 nM; IC50 [9]: ≤ 10 nM; IC50 [10]: ≤ 1000 nM; IC50 [11]: ≤ 1000 nM; IC50 ([3]; Miapaca2, read-out: In Vitro IC50): ≤ 10 nM; IC50 [12]: ≤ 10 nM; IC50 [13]: ≤ 10 nM; IC50 [14]: ≤ 20 nM; IC50 [15]: ≤ 1000 nM; IC50 [16]: ≤ 1000 nM; IC50 (U2OS (bone osteosarcoma)): ≤ 20 nM

With `Cc1cc(Nc2ncc(F)c(NC3C4C=CC(C4)C3C(N)=O)n2)ccc1N1CCN(C)CC1` (racemic) [compound 221, Racemic-(2-exo, 3-exo)-N4-(3-aminocarbonylbicyclo[2.2.1]hept-5-en-2-yl)-5-fluoro-N2-[3-methyl-4-(4-methylpiparazin-1-yl)phenyl]-2,4-pyrimidinediamine] as the compound, how does the IC50 (A549 (lung carcinoma); A549, read-out: In Vitro IC50) read?
Its IC50 is no more than 10 nM.

And the IC50 (A549 (lung carcinoma); [19])?
The IC50 was no more than 100 nM.

What about the IC50 ([1]; H1299, read-out: In Vitro IC50) of the same compound?
Its IC50 is no more than 20 nM.

And the IC50 [1, 20]?
The IC50 was no more than 100 nM.

What about the IC50 ([5]; Homo sapiens) of the same compound?
Its IC50 is no more than 20 nM.

And the IC50 ([6]; Homo sapiens, COLO 205)?
Its IC50 is no more than 10 nM.

And the IC50 [2, 23]?
The IC50 was no more than 10 nM.

And the IC50 ([8]; Homo sapiens, HeLa)?
Its IC50 is no more than 10 nM.

What about the IC50 [9] of the same compound?
The IC50 was no more than 10 nM.

And the IC50 ([10]; Homo sapiens)?
Its IC50 is no more than 1000 nM.

And the IC50 ([11]; Mus musculus)?
The IC50 was no more than 1000 nM.

What about the IC50 [3, 24] of the same compound?
The IC50 was no more than 10 nM.

And the IC50 ([12]; Homo sapiens, MOLT-3)?
The IC50 was no more than 10 nM.

And the IC50 ([13]; Homo sapiens, MOLT-4)?
Its IC50 is no more than 10 nM.

What about the IC50 ([15]; Homo sapiens, SW-620) of the same compound?
The IC50 was no more than 20 nM.

What about the IC50 ([16]; Homo sapiens) of the same compound?
Its IC50 is no more than 20 nM.

What about the IC50 (U2OS (bone osteosarcoma); Homo sapiens, U2OS) of the same compound?
The IC50 was no more than 20 nM.

What about the IC50 [17] of the same compound?
The IC50 was no more than 10 nM.

Which results are given for `Cc1cc(Nc2ncc(F)c(N[C@H]3CCC[C@H]3C(N)=O)n2)ccc1N1CCN(C)CC1` (stereo in doubt) [Compound 15a, (1S,2R)—N4-(2-Aminocarbonylcyclopent-1-yl)-5-fluoro-N2-[4-(4-methylpiperazin-1-yl)-3-methylphenyl]-2,4-pyrimidinediamine]?
IC50 (A549 (lung carcinoma); [19]): 100 to 1000 nM; IC50 [1, 20]: 100 to 1000 nM; IC50 [3, 22]: < 1000 nM; IC50 [4]: < 1000 nM

Which IC50 (A549 (lung carcinoma); [19]) does the source give for `Cc1cc(Nc2ncc(F)c(N[C@@H]3CCC[C@@H]3C(N)=O)n2)ccc1N1CCN(C)CC1` (stereo in doubt) [Compound 15b, (1R,2S)—N4-(2-Aminocarbonylcyclopent-1-yl)-5-fluoro-N2-[4-(4-methylpiperazin-1-yl)-3-methylphenyl]-2,4-pyrimidinediamine] here?
Its IC50 is 1000 to 10000 nM.

What about the IC50 [1, 20] of the same compound?
The IC50 was 1000 to 10000 nM.

And the IC50 [2, 21]?
The IC50 was less than 5000 nM.

And the IC50 [3, 22]?
The IC50 was less than 5000 nM.

What about the IC50 [4] of the same compound?
Its IC50 is less than 5000 nM.

What does the source list for `Cc1cc(Nc2ncc(F)c(NC3C(C(N)=O)[C@H]4C=C[C@@H]3C4)n2)ccc1N1CCN(C)CC1` (stereo in doubt) [Compound 60b, (1S,2R,3S,4R)—N4-(3-Aminocarbonylbicyclo[2.2.1]hept-5-en-2-yl)-5-fluoro-N2-[3-methyl-4-(4-methylpiperazin-1-yl)phenyl]-2,4-pyrimidinediamine]?
IC50 (A549 (lung carcinoma); [19]): 1000 to 10000 nM; IC50 (A549 (lung carcinoma); Homo sapiens, A549, A549, read-out: In Vitro IC50): > 1000 nM; IC50 [1, 20]: 1000 to 10000 nM; IC50 ([1]; Homo sapiens, NCI-H1299, H1299, read-out: In Vitro IC50): > 1000 nM; IC50 ([6]; Homo sapiens, COLO 205): > 1000 nM; IC50 [2, 23]: ≤ 1000 nM; IC50 (H7299): > 1000 nM; IC50 ([8]; Homo sapiens, HeLa): > 1000 nM; IC50 [9]: > 1000 nM; IC50 ([10]; Homo sapiens): > 1000 nM; IC50 ([11]; Mus musculus): > 1000 nM; IC50 [3, 24]: > 1000 nM; IC50 ([12]; Homo sapiens, MOLT-3): > 1000 nM; IC50 ([13]; Homo sapiens, MOLT-4): > 1000 nM; IC50 ([14]; Homo sapiens, PC-3): > 1000 nM; IC50 ([15]; Homo sapiens, SW-620): > 1000 nM; IC50 ([16]; Homo sapiens): ≤ 1000 nM; IC50 (U2OS (bone osteosarcoma); Homo sapiens, U2OS): ≤ 1000 nM; IC50 [17]: > 1000 nM; IC50 (Aurora kinase-B; A549 cells, phospho-histone H3, read-out: IC50 of Aurora kinase-B inhibition): 2490 nM

How did the “Result in cell-based inhibition assays against Aurora kinase B compared to the (1S,2S,3R,4R) diastereomer” value (Aurora kinase-B; in words) turn out when `Cc1cc(Nc2ncc(F)c(NC3C4C=CC(C4)C3C(N)=O)n2)ccc1N1CCN(C)CC1` [(1R,2R,3S,4S) diastereomer, N4-(3-aminocarbonylbicyclo[2.2.1]hept-5-en-2-yl)-5-fluoro-N2-[3-methyl-4-(4-methylpiperazin-1-yl)phenyl]-2,4-pyrimidinediamine] was run?
Its value is “similarly superior results”.

And the “Potency relative to the endo-endo racemate” value ([18]; (1R,2R,3S,4S) diastereomer, more potent)?
The value was 20-50 times.

What about the “Potency relative to the (1S,2S,3R,4R) diastereomer” value ([18]; more potent) of the same compound?
The value was “approximately 1000 fold”.

And the “IC50s when tested as isolated stereoisomers” value ([18]; range in words, same cell lines)?
Its value is “nanomolar range”.
